The values below are quoted from earlier work in patent US20060014839A1, “Combination of angiotensin II receptor blocker and beta-blocker for secondary prevention of myocardial infarction” (priority 2002, published 2006).

Structures are written as SMILES.

This data set relates to elderly patients with heart failure. The note with it: losartan versus captopril 50 mg t.i.d.

With `CCCCc1nc(Cl)c(CO)n1Cc1ccc(-c2ccccc2-c2nn[nH]n2)cc1` [losartan], the “tolerability and increase in serum creatinine (primary objective)” value was “no significant differences”. Further, the all-cause mortality result (722 patients, 49 deaths, preliminary) is reported as “statistically significant reduction”.
